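Briefly, cells in 96-well plates were exposed to five compound concentrations for 48 h, and endpoints were estimated by linear interpolation. At the GI50, growth is halved. At the TGI there is no net growth.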
How the values were obtained:
Assay in all cases: NCI tumour cell line growth inhibition, 48 h
BT-549 breast = system: BT-549 breast
PC-3 prostate = system: PC-3 prostate
A498 renal = system: A498 renal
NCI-H460 lung = system: NCI-H460 lung
LOX IMVI melanoma = system: LOX IMVI melanoma
ACHN renal = system: ACHN renal
HCT-116 colon = system: HCT-116 colon
SNB-19 CNS = system: SNB-19 CNS
NCI-H23 lung = system: NCI-H23 lung
SK-OV-3 ovarian = system: SK-OV-3 ovarian
OVCAR-3 ovarian = system: OVCAR-3 ovarian
HOP-62 NSCLC = system: HOP-62 NSCLC
SK-MEL-2 melanoma = system: SK-MEL-2 melanoma
SN12C renal = system: SN12C renal
CAKI-1 renal = system: CAKI-1 renal
UO-31 renal = system: UO-31 renal
RPMI-8226 leukemia = system: RPMI-8226 leukemia
IGROV1 ovarian = system: IGROV1 ovarian
786-0 renal = system: 786-0 renal
HOP-92 NSCLC = system: HOP-92 NSCLC
SW-620 colon = system: SW-620 colon
NCI-H226 lung = system: NCI-H226 lung
MDA-MB-468 breast = system: MDA-MB-468 breast
EKVX NSCLC = system: EKVX NSCLC
MDA-MB-435 = system: MDA-MB-435
HS 578T breast = system: HS 578T breast
SF-295 CNS = system: SF-295 CNS
RXF 393 renal = system: RXF 393 renal
CCRF-CEM leukemia = system: CCRF-CEM leukemia
K-562 leukemia = system: K-562 leukemia
HCT-15 colon = system: HCT-15 colon
MDA-MB-231 breast = system: MDA-MB-231 breast
SK-MEL-5 melanoma = system: SK-MEL-5 melanoma
NCI-H522 lung = system: NCI-H522 lung
OVCAR-4 ovarian = system: OVCAR-4 ovarian
SR leukemia = system: SR leukemia
HCC-2998 colon = system: HCC-2998 colon
MOLT-4 leukemia = system: MOLT-4 leukemia
M14 melanoma = system: M14 melanoma
HL-60(TB) leukemia = system: HL-60(TB) leukemia
SF-539 CNS = system: SF-539 CNS
MCF7 breast = system: MCF7 breast
TK-10 renal = system: TK-10 renal
T-47D breast = system: T-47D breast
U251 CNS = system: U251 CNS
HT29 colon = system: HT29 colon
DU-145 prostate = system: DU-145 prostate
UACC-62 melanoma = system: UACC-62 melanoma
COLO 205 colon = system: COLO 205 colon
KM12 colon = system: KM12 colon
OVCAR-8 ovarian = system: OVCAR-8 ovarian
SF-268 CNS = system: SF-268 CNS
A549 NSCLC = system: A549 NSCLC
UACC-257 melanoma = system: UACC-257 melanoma
OVCAR-5 ovarian = system: OVCAR-5 ovarian
MALME-3M melanoma = system: MALME-3M melanoma
SK-MEL-28 melanoma = system: SK-MEL-28 melanoma

`C=CC(=O)N1CCN(c2ccc3nc4c(nc3c2C(F)(F)F)C(=O)c2ncccc2C4=O)CC1` showed a GI50 (BT-549 breast) of 7.17 µM, a TGI (BT-549 breast) of 20.3 µM and a GI50 (PC-3 prostate) of 2.52 µM. It also gave a TGI (PC-3 prostate) greater than 98 µM, a GI50 (A498 renal) of 15.6 µM and a TGI (A498 renal) of 29.8 µM. The GI50 (NCI-H460 lung) was 1.25 µM, the TGI (NCI-H460 lung) was 3.75 µM and the GI50 (LOX IMVI melanoma) was 2.09 µM. The TGI (LOX IMVI melanoma) was 6.37 µM, the GI50 (ACHN renal) was 6.41 µM and the TGI (ACHN renal) was 20.5 µM. It also gave a GI50 (HCT-116 colon) of 2.67 µM, a TGI (HCT-116 colon) of 7.4 µM and a GI50 (SNB-19 CNS) of 5.4 µM. For the same compound, the TGI (SNB-19 CNS) was 20.1 µM, the GI50 (NCI-H23 lung) was 1.97 µM and the TGI (NCI-H23 lung) was 9.88 µM. It also gave a GI50 (SK-OV-3 ovarian) of 19.4 µM, a TGI (SK-OV-3 ovarian) of 79.6 µM and a GI50 (OVCAR-3 ovarian) of 2.24 µM. It also gave a TGI (OVCAR-3 ovarian) of 6.35 µM, a GI50 (HOP-62 NSCLC) of 10.9 µM and a TGI (HOP-62 NSCLC) of 39.8 µM. For the same compound, the GI50 (SK-MEL-2 melanoma) was 3.01 µM, the TGI (SK-MEL-2 melanoma) was 13.2 µM and the GI50 (SN12C renal) was 2.27 µM. The TGI (SN12C renal) was 8.31 µM, the GI50 (CAKI-1 renal) was 9.74 µM and the TGI (CAKI-1 renal) was 38 µM. For the same compound, the GI50 (UO-31 renal) was 11 µM, the TGI (UO-31 renal) was 25.7 µM and the GI50 (RPMI-8226 leukemia) was 3.1 µM. The TGI (RPMI-8226 leukemia) was 40.7 µM, the GI50 (IGROV1 ovarian) was 2.9 µM and the TGI (IGROV1 ovarian) was 12.3 µM. It also gave a GI50 (786-0 renal) of 9.96 µM, a TGI (786-0 renal) of 66.6 µM and a GI50 (HOP-92 NSCLC) of 19 µM. It also gave a TGI (HOP-92 NSCLC) of 57.1 µM, a GI50 (SW-620 colon) of 2.88 µM and a TGI (SW-620 colon) of 11 µM. The GI50 (NCI-H226 lung) was 10.9 µM, the TGI (NCI-H226 lung) was 27.7 µM and the GI50 (MDA-MB-468 breast) was 1.58 µM. For the same compound, the TGI (MDA-MB-468 breast) was 3.67 µM, the GI50 (EKVX NSCLC) was 8.45 µM and the TGI (EKVX NSCLC) was 21.9 µM. For the same compound, the GI50 (MDA-MB-435) was 1.68 µM, the TGI (MDA-MB-435) was 3.21 µM and the GI50 (HS 578T breast) was 16.9 µM. For the same compound, the TGI (HS 578T breast) was 56.4 µM, the GI50 (SF-295 CNS) was 4.1 µM and the TGI (SF-295 CNS) was 16.9 µM. It also gave a GI50 (RXF 393 renal) of 3.59 µM, a TGI (RXF 393 renal) of 15.8 µM and a GI50 (CCRF-CEM leukemia) of 2.99 µM. It also gave a TGI (CCRF-CEM leukemia) greater than 98 µM, a GI50 (K-562 leukemia) of 4.4 µM and a TGI (K-562 leukemia) greater than 98 µM. The GI50 (HCT-15 colon) was 2.39 µM, the TGI (HCT-15 colon) was 11.9 µM and the GI50 (MDA-MB-231 breast) was 2.95 µM. It also gave a TGI (MDA-MB-231 breast) of 10.7 µM, a GI50 (SK-MEL-5 melanoma) of 1.39 µM and a TGI (SK-MEL-5 melanoma) of 2.67 µM. The GI50 (NCI-H522 lung) was 9.95 µM, the TGI (NCI-H522 lung) was 23.8 µM and the GI50 (OVCAR-4 ovarian) was 2.41 µM. The TGI (OVCAR-4 ovarian) was 6.7 µM, the GI50 (SR leukemia) was 3.18 µM and the TGI (SR leukemia) was greater than 98 µM. It also gave a GI50 (HCC-2998 colon) of 5.44 µM, a TGI (HCC-2998 colon) of 18.1 µM and a GI50 (MOLT-4 leukemia) of 3.28 µM. For the same compound, the TGI (MOLT-4 leukemia) was 21.2 µM, the GI50 (M14 melanoma) was 2.53 µM and the TGI (M14 melanoma) was 12.3 µM. The GI50 (HL-60(TB) leukemia) was 3.34 µM, the TGI (HL-60(TB) leukemia) was greater than 98 µM and the GI50 (SF-539 CNS) was 3.39 µM. The TGI (SF-539 CNS) was 11.7 µM, the GI50 (MCF7 breast) was 1.77 µM and the TGI (MCF7 breast) was 5.48 µM. The GI50 (TK-10 renal) was 18.6 µM, the TGI (TK-10 renal) was 97.6 µM and the GI50 (T-47D breast) was 2.66 µM. The TGI (T-47D breast) was 9.9 µM, the GI50 (U251 CNS) was 3.11 µM and the TGI (U251 CNS) was 13.3 µM. It also gave a GI50 (HT29 colon) of 3.27 µM, a TGI (HT29 colon) of 11 µM and a GI50 (DU-145 prostate) of 6.16 µM. It also gave a TGI (DU-145 prostate) of 20 µM, a GI50 (UACC-62 melanoma) of 2.05 µM and a TGI (UACC-62 melanoma) of 5.31 µM. For the same compound, the GI50 (COLO 205 colon) was 2.42 µM, the TGI (COLO 205 colon) was 7.83 µM and the GI50 (KM12 colon) was 4.61 µM. The TGI (KM12 colon) was 55.3 µM, the GI50 (OVCAR-8 ovarian) was 2.99 µM and the TGI (OVCAR-8 ovarian) was 11.6 µM. For the same compound, the GI50 (SF-268 CNS) was 7.76 µM, the TGI (SF-268 CNS) was 63.6 µM and the GI50 (A549 NSCLC) was 3.05 µM. For the same compound, the TGI (A549 NSCLC) was 14.7 µM, the GI50 (UACC-257 melanoma) was 1.72 µM and the TGI (UACC-257 melanoma) was 4.16 µM. It also gave a GI50 (OVCAR-5 ovarian) of 11.8 µM, a TGI (OVCAR-5 ovarian) of 25.2 µM and a GI50 (MALME-3M melanoma) of 1.3 µM. The TGI (MALME-3M melanoma) was 2.67 µM, the GI50 (SK-MEL-28 melanoma) was 10.8 µM and the TGI (SK-MEL-28 melanoma) was 28.2 µM.

Source: PubChem BioAssay (NCI)
